Test results: article PMC9148196 (The AAPS journal, 2021)

Molecular target: P-glycoprotein (P-gp, MDR1) (Homo sapiens, UniProt P08183)
Experiment: basal-to-apical [3H]digoxin flux in MDCK-hMDR1-cMDR1-KO cells, dose-response
Format: cell-based

Chain of P-glycoprotein (P-gp, MDR1) (P08183 whole entry): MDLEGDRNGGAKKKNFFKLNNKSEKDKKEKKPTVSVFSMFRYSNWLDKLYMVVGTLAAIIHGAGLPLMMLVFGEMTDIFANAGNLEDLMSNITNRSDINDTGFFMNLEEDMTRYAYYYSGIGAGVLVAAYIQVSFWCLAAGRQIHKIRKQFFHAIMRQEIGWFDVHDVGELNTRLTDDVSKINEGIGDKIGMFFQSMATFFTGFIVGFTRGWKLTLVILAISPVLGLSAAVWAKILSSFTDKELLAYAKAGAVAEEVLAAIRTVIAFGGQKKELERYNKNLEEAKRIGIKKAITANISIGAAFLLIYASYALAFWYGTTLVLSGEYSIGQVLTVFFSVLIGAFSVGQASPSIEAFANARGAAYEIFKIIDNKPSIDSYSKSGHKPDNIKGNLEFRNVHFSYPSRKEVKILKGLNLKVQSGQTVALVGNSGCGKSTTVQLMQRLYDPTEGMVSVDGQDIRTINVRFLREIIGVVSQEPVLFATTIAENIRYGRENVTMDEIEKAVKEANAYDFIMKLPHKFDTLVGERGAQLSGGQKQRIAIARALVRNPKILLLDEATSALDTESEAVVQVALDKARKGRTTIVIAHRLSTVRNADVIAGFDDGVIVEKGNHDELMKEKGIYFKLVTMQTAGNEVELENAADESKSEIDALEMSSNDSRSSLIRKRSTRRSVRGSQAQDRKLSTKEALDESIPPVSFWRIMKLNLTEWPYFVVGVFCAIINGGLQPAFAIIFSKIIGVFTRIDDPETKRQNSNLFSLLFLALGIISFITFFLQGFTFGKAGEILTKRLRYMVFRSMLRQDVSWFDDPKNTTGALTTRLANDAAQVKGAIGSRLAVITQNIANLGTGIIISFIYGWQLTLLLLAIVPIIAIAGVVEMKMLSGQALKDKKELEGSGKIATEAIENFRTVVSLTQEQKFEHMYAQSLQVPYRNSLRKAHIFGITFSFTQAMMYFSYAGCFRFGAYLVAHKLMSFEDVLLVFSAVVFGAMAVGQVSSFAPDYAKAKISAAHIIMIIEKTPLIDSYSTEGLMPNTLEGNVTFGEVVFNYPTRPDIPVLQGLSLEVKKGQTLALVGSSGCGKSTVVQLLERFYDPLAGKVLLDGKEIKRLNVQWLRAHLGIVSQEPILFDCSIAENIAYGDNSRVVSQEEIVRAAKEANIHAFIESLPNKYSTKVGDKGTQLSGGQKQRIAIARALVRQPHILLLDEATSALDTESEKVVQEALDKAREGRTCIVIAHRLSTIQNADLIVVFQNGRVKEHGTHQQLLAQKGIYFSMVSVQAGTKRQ

`CCN(Cc1cccc(S(=O)(=O)O)c1)c1ccc(C(=C2C=CC(=[N+](CC)Cc3cccc(S(=O)(=O)[O-])c3)C=C2)c2ccc(S(=O)(=O)O)cc2)cc1` [Light green SF yellowish] was tested, and the IC50 was 204 µM.
